We go through two compounds from patent publication US4256836A, “Addition compound of dipeptide derivative and amino acid derivative” (Toyo Soda Manufacturing Co. Ltd., priority 1977, dated 1981).

Molecules are shown by their SMILES. Where a SMILES comes first, the peptide text is derived from it. The star is where a group is joined. Cbz = O=C(OCc1ccccc1)*

The nature of data set [1]: solubility in water or acidic aqueous solution. The class given is physicochemical. The conditions noted are these: at 25° C.
For data set [2] the following is noted: relative to sugar; cited from earlier work.

In turn, `COC(=O)[C@H](Cc1ccccc1)NC(=O)[C@H](CC(=O)O)NC(=O)OCc1ccccc1` (Cbz-Asp-Phe-OMe) came in with a solubility in water in data set [1] of 0.028 g/100 g water. The “solubility in diluted hydrochloric acid” value in data set [1] (diluted hydrochloric acid (10^-2 M)) was 0.017 g/100 g diluted hydrochloric acid (10^-2 M).
`COC(=O)[C@H](Cc1ccccc1)NC(=O)[C@@H](N)CC(=O)O` [α-L-Aspartyl-L-phenylalanine methyl ester] (H-Asp-Phe-OMe): in data set [2], the sweetness entry was “about 200 times of that of sugar”.
